# What was measured:
# [1] = system: E. faecium ATCC 35667; experiment: Broth microdilution MIC (NCCLS); assay type: cell-based; conditions: Enterococcus faecium, ATCC35667, Mueller-Hinton Broth, 24 h at 35 °C
# Protocol: (§1) Compounds were evaluated for antimicrobial activity against a panel of bacterial strains using a broth microdilution assay performed as recommended by the NCCLS (1). The minimum inhibitory concentration (MIC) was defined as the lowest concentration of drug which prevented the growth of the bacteria. The following 16 organisms constituted the primary panel of evaluation:
# (§2) For this primary panel, the assay was performed in Mueller-Hinton Broth (MHB) with a final bacterial inoculum of 5 x 10^5 CFU/mL (from an early-log phase culture) and a final volume of 100 µL. Control drugs, including imipenem, vancomycin, Penicillin G, dicloxacillin (vs. MSSA ATCC29213 only), and new compounds were prepared at a concentration equivalent to 2-fold the desired final concentration. Dilution of compounds were prepared directly in the plates by serial 2-fold dilution using a multichannel pipette. Positive and negative growth control were included in each plate.
# (§3) The bacterial inocula were prepared as follows. For each strain one isolated colony was used to inoculate a volume of 8 mL of Mueller-Hinton broth and these cultures were incubated overnight (20h) at 35 °C in a shaking incubator. At the exception of Enterococcus strains, culture were then diluted 1:10 and allowed to grow for an additional one hour at 35 °C in a shaking incubator. The inocula were prepared by diluting the early log-phase (1h) cultures 1:1000 with fresh Mueller-Hinton broth. E. faecium and E. faecalis were prepared by diluting overnight cultures 1:333 and 1:666, respectively, with fresh Mueller-Hinton broth . A volume of 50 µL of the inocula was added to each well. […] The exact inocula were determined by applying […] of 10-fold serial dilution of the bacterial suspensions on TSA. After overnight incubation at 35 °C, colony forming units were manually counted.
# (§4) Microtiter plates were incubated during 24 h at 35 °C and were read using a microtiterplate reader (Molecular Devices) at 650 nm as well as by visual observation using a microtiterplate reading mirror.
# [2] = system: S. aureus ATCC 29213; experiment: Broth microdilution MIC (NCCLS); assay type: cell-based; conditions: Staphylococcus aureus, ATCC29213, Mueller-Hinton Broth, 24 h at 35 °C
# Protocol: as §1, §2, §3, §4
# [3] = system: S. aureus ATCC 33593 (Meth^R); experiment: Broth microdilution MIC (NCCLS); assay type: cell-based; conditions: Staphylococcus aureus, ATCC33593, Mueller-Hinton Broth, 24 h at 35 °C
# Protocol: as §1, §2, §3, §4
# [4] = system: S. aureus PC1 (Meth^S)(lac^+); experiment: Broth microdilution MIC (NCCLS); assay type: cell-based; conditions: Staphylococcus aureus; S. aureus PC1 (Meth^S)(lac^+); Mueller-Hinton Broth, 24 h at 35 °C; read-out: MIC
# Protocol: as §1, §2, §3, §4
# [5] = system: E. faecium VanA (Van^R); experiment: Broth microdilution MIC (NCCLS); assay type: cell-based; conditions: Enterococcus faecium, Mueller-Hinton Broth, 24 h at 35 °C
# Protocol: as §1, §2, §3, §4
# [6] = system: S. haemolyticus 05 (Meth^R); experiment: Broth microdilution MIC (NCCLS); assay type: cell-based; conditions: Staphylococcus haemolyticus, Mueller-Hinton Broth, 24 h at 35 °C
# Protocol: as §1, §2, §3, §4
# [7] = system: E. faecalis VanB (Van^R); experiment: Broth microdilution MIC (NCCLS); assay type: cell-based; conditions: Enterococcus faecalis, Mueller-Hinton Broth, 24 h at 35 °C
# Protocol: as §1, §2, §3, §4
# [8] = system: P. aeruginosa ATCC 27853; experiment: Broth microdilution MIC (NCCLS); assay type: cell-based; conditions: Pseudomonas aeruginosa, ATCC27853, Mueller-Hinton Broth, 24 h at 35 °C
# Protocol: as §1, §2, §3, §4
# [9] = system: E. coli ATCC25992; experiment: Broth microdilution MIC (NCCLS); assay type: cell-based; conditions: Escherichia coli, Mueller-Hinton Broth, 24 h at 35 °C
# Protocol: as §1, §2, §3, §4
# [10] = system: S. aureus Spain #356 (Meth^R); experiment: Broth microdilution MIC (NCCLS); assay type: cell-based; conditions: Staphylococcus aureus, Mueller-Hinton Broth, 24 h at 35 °C
# Protocol: as §1, §2, §3, §4
# [11] = system: S. aureus 76 (Meth^R)(lac^+); experiment: Broth microdilution MIC (NCCLS); assay type: cell-based; conditions: Staphylococcus aureus, Mueller-Hinton Broth, 24 h at 35 °C
# Protocol: as §1, §2, §3, §4
# [12] = system: E. faecalis ATCC 29212; experiment: Broth microdilution MIC (NCCLS); assay type: cell-based; conditions: Enterococcus faecalis, ATCC29212, Mueller-Hinton Broth, 24 h at 35 °C
# Protocol: as §1, §2, §3, §4
# [13] = system: E. faecium A491 (Amp^R); experiment: Broth microdilution MIC (NCCLS); assay type: cell-based; conditions: Enterococcus faecium, Mueller-Hinton Broth, 24 h at 35 °C
# Protocol: as §1, §2, §3, §4
# [14] = In vitro stability of compounds in rat serum; assay type: in vitro ADME; conditions: compared with other 7-acylamino-3-heteroarylthio-3-cephem carboxylic acids
# Protocol: In general, compounds from the class of 7-acylamino-3-heteroarylthio-3-cephem carboxylic acids have higher chemical reactivity and lower stability towards chemical or enzymatic decomposition than most typical cephalosporins. […] Results shown in Table 2 represent percentage loss of the initial amount of cephalosporin compound upon 60 min incubation in rat serum.
# Procedure for measuring degree of degradation of cephalosporin compounds in rat serum was as follows:
# Fresh control rat serum (heparinized and stored frozen) is preincubated at 37 °C for 15 min in a shaking water bath. pH is measured using test strips. 25 µL of a 2 mg/mL solution cephalosporin compound (in water) of is then added to each matrix to make 1000 µL. Solutions were incubated at 37 °C. 100ul of solution was taken out at time = 0, 15, 30, and 60 min post dose and added 200 µL 4% trichloroacetic acid, vortexed, and centrifuged for 10 min at 14,000 rpm in an Eppendorfmicrocentrifuge. 25 µL of each supernatant was injected onto HPLC. Experiment was repeated using 25 µL of a 0.2 mg/mL cephalosporin compound. Degradation is measured as the percentage of HPLC peak area at time t relative to peak area at time 0.
# HPLC conditions: Beckman Ultrasphere C18 column. 5u. 4.6mm x 25cm. 1 mL/min of 95% 0.1 M ammonium acetate, pH 6, 5% ACN going to 75% buffer/organic over 20min. UV monitored at 254 and 280 nm.
smiles,measurement,setting,value
"NCCSCc1ccncc1SC1=C(C(=O)O)N2C(=O)[C@@H](NC(=O)/C(=N\O)c3nsc(N)n3)[C@H]2SC1 [Cmpd 4, (7R)-7-[(Z)-2-(5-amino-1,2,4-thiadiazol-3-yl)-2-(hydroxyimino)acetamido]-3-[4-(2-aminoethylthiomethyl)pyrid-3-ylthio]-3-cephem-4-carboxylic acid]",MIC,[1],8 µg/mL
same,MIC,[2],0.5 µg/mL
same,MIC,[3],8 µg/mL
same,MIC,[4],0.5 µg/mL
same,MIC,[5],8 µg/mL
same,MIC,[6],16 µg/mL
same,MIC,[7],2 µg/mL
same,MIC,[8],> 32 µg/mL
same,MIC,[9],4 µg/mL
same,MIC,[10],16 µg/mL
same,MIC,[11],8 µg/mL
same,MIC,[12],2 µg/mL
same,MIC,[13],> 32 µg/mL
same,stability in rat serum (statement in words),[14],improved stability

# Reference: EP1222194B1, “7-ACYLAMINO-3-HETEROARYLTHIO-3-CEPHEM CARBOXYLIC ACID ANTIBIOTICS AND PRODRUGS THEREOF” (priority 1999, dated 2001)
